# According to patent publication US8486979B2, “1,2,4 oxadiazole compounds and methods of use thereof” (AbbVie Inc., priority 2006, dated 2013):
# Biological target: T1, α4β2 nAChR modulator site (Homo sapiens, UniProt P17787+P43681)
# T1 construct: membrane enriched fractions from human cortex (ABS Inc., Wilmington, Del.); tissue ABS Inc., Wilmington, Del; host or cells: human cortex (frontal cortex) membrane enriched fractions
# Test: [3H]-POB binding, membrane enriched fractions from human cortex
# Settings: saturation binding, human frontal cortex membranes, 4° C.
# Method: [^3H]-POB ([^3H]-3-(5-(pyridin-3-yl)-1,2,4-oxadiazol-3-yl)benzonitrile) binding to a α4β2 nAChR modulator site was determined using membrane enriched fractions from human cortex (ABS Inc., Wilmington, Del.). Pellets were thawed at 4° C., washed and resuspended with a Polytron at a setting of 7 in 30 volumes of BSS-Tris buffer (120 mM NaCl, 5 mM KCl, 2 mM CaCl2, 2 mM MgCl2, and 50 mM Tris-Cl, pH 7.4, 4° C.). For saturation binding isotherms, eight concentrations of [^3H]-POB (10-250 nM) in quadruplicate and homogenate containing 100-200 μg of protein were incubated in a final volume of 500 μL for 75 minutes at 4° C. Non-specific binding was determined in the presence of 30 μM unlabeled 3-(5-(pyridin-3-yl)-1,2,4-oxadiazol-3-yl)benzonitrile. Under these conditions, saturable binding of [^3H]-POB binding was measured in membrane enriched fractions from human frontal cortex (FIG. 10). […]
# For use in concentration-inhibition assays, seven log-dilution concentrations of test compounds containing 100-200 μg of protein, and 50 nM [^3H]-POB (16.4 Ci/mmol) were incubated in a final volume of 500 μL for 75 minutes at 4° C. in duplicate. Non-specific binding was determined in the presence of 30 μM 3-(5-(pyridin-3-yl)-1,2,4-oxadiazol-3-yl)benzonitrile. […] IC50 values were determined by nonlinear regression in Microsoft® Excel or Assay Explorer. […]
# T1 sequence (P43681 29-627 limits assumed): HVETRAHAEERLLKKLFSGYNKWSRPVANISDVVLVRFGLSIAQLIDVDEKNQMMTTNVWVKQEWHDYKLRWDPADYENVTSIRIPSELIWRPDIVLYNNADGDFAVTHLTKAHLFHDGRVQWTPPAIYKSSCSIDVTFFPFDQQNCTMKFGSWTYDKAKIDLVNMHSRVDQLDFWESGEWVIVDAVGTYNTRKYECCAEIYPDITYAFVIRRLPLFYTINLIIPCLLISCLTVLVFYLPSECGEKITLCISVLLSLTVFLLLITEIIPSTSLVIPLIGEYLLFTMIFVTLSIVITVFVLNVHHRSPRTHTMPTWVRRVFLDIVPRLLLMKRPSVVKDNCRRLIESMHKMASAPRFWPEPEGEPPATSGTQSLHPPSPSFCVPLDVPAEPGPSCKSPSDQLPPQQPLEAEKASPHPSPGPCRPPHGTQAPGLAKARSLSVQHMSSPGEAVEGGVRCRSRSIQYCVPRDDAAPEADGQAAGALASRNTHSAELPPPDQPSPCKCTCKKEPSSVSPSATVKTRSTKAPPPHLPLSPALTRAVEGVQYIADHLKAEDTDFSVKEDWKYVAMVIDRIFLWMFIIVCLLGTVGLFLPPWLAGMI
# T1 sequence (P17787 26-502): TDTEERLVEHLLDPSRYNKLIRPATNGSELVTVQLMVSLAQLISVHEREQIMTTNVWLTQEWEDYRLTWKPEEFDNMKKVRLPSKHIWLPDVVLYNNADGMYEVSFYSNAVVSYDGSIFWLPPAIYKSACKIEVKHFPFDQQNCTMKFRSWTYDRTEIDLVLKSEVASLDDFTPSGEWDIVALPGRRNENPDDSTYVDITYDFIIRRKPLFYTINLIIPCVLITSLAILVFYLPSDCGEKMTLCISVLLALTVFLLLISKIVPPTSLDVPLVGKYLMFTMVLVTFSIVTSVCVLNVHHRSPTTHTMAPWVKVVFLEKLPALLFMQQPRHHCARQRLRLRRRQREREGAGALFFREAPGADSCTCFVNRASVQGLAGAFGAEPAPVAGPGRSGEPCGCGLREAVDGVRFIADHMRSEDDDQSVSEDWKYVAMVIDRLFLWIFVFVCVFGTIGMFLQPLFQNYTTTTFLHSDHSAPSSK
smiles,measurement,value
"[3H]c1cncc(-c2nc(-c3cccc(C#N)c3)no2)c1 [Example 135, [^3H]-3-(5-(pyridin-3-yl)-1,2,4-oxadiazol-3-yl)benzonitrile]",Bmax,2900±500 fmol/mg protein
same,Kd,60 ± 16 nM
